Assay results from PubChem BioAssay (NCI).
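Exposure lasted 48 hours, with cells grown in 96-well plates and compounds tested at five concentrations. GI50 = concentration required for 50% inhibition of growth. Definition used: TGI = concentration required for complete inhibition of growth.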

Key:
Assay in all cases: NCI-60 cell line screen, 48 h
[1] = test system: 786-0 renal
[2] = test system: A498 renal
[3] = test system: A549 NSCLC
[4] = test system: ACHN renal
[5] = test system: BT-549 breast
[6] = test system: CAKI-1 renal
[7] = test system: CCRF-CEM leukemia
[8] = test system: COLO 205 colon
[9] = test system: DU-145 prostate
[10] = test system: EKVX NSCLC
[11] = test system: HCC-2998 colon
[12] = test system: HCT-116 colon
[13] = test system: HCT-15 colon
[14] = test system: HL-60(TB) leukemia
[15] = test system: HOP-62 NSCLC
[16] = test system: HOP-92 NSCLC
[17] = test system: HS 578T breast
[18] = test system: HT29 colon
[19] = test system: IGROV1 ovarian
[20] = test system: K-562 leukemia
[21] = test system: KM12 colon
[22] = test system: LOX IMVI melanoma
[23] = test system: M14 melanoma
[24] = test system: MALME-3M melanoma
[25] = test system: MCF7 breast
[26] = test system: MDA-MB-231 breast
[27] = test system: MDA-MB-435
[28] = test system: MDA-MB-468 breast
[29] = test system: MOLT-4 leukemia
[30] = test system: NCI-H226 lung
[31] = test system: NCI-H23 lung
[32] = test system: NCI-H460 lung
[33] = test system: NCI-H522 lung
[34] = test system: NCI/ADR-RES ovarian
[35] = test system: OVCAR-3 ovarian
[36] = test system: OVCAR-4 ovarian
[37] = test system: OVCAR-5 ovarian
[38] = test system: OVCAR-8 ovarian
[39] = test system: PC-3 prostate
[40] = test system: RPMI-8226 leukemia
[41] = test system: RXF 393 renal
[42] = test system: SF-268 CNS
[43] = test system: SF-295 CNS
[44] = test system: SF-539 CNS
[45] = test system: SK-MEL-2 melanoma
[46] = test system: SK-MEL-28 melanoma
[47] = test system: SK-MEL-5 melanoma
[48] = test system: SK-OV-3 ovarian
[49] = test system: SN12C renal
[50] = test system: SNB-19 CNS
[51] = test system: SNB-75 CNS
[52] = test system: SR leukemia
[53] = test system: SW-620 colon
[54] = test system: T-47D breast
[55] = test system: TK-10 renal
[56] = test system: U251 CNS
[57] = test system: UACC-257 melanoma
[58] = test system: UACC-62 melanoma
[59] = test system: UO-31 renal

`CN1C(=O)N(C)C2SC(N/N=C/c3cccs3)=NC21` (stereo not drawn) was tested, and the GI50 [1] was 14.3 µM, the TGI [1] was greater than 100 µM and the GI50 [2] was 22.7 µM. It also gave a TGI [2] greater than 100 µM, a GI50 [3] of 9.64 µM and a TGI [3] greater than 100 µM. It also gave a GI50 [4] of 12 µM, a TGI [4] greater than 100 µM and a GI50 [5] of 3.61 µM. The TGI [5] was greater than 100 µM, the GI50 [6] was 4.12 µM and the TGI [6] was greater than 100 µM. The GI50 [7] was 3.96 µM, the TGI [7] was greater than 100 µM and the GI50 [8] was 4.47 µM. For the same molecule, the TGI [8] was 24.1 µM, the GI50 [9] was 30 µM and the TGI [9] was greater than 100 µM. It also gave a GI50 [10] of 7.93 µM, a TGI [10] greater than 100 µM and a GI50 [11] of 8.21 µM. For the same molecule, the TGI [11] was 71.9 µM, the GI50 [12] was 3.98 µM and the TGI [12] was greater than 100 µM. For the same molecule, the GI50 [13] was 3.92 µM, the TGI [13] was greater than 100 µM and the GI50 [14] was 2.39 µM. For the same molecule, the TGI [14] was 7.36 µM, the GI50 [15] was 7.45 µM and the TGI [15] was greater than 100 µM. The GI50 [16] was greater than 100 µM, the TGI [16] was greater than 100 µM and the GI50 [17] was 2.63 µM. It also gave a TGI [17] of 9.74 µM, a GI50 [18] of 3.03 µM and a TGI [18] of 11.5 µM. It also gave a GI50 [19] of 5.58 µM, a TGI [19] greater than 100 µM and a GI50 [20] of 2.96 µM. The TGI [20] was greater than 100 µM, the GI50 [21] was 4.97 µM and the TGI [21] was greater than 100 µM. For the same molecule, the GI50 [22] was 5.26 µM, the TGI [22] was greater than 100 µM and the GI50 [23] was 3.32 µM. The TGI [23] was greater than 100 µM, the GI50 [24] was 3.83 µM and the TGI [24] was greater than 100 µM. For the same molecule, the GI50 [25] was 3.98 µM, the TGI [25] was greater than 100 µM and the GI50 [26] was 4.89 µM. For the same molecule, the TGI [26] was 88.3 µM, the GI50 [27] was 1.58 µM and the TGI [27] was 4.18 µM. For the same molecule, the GI50 [28] was 1.89 µM, the TGI [28] was 5.47 µM and the GI50 [29] was 4.26 µM. It also gave a TGI [29] greater than 100 µM, a GI50 [30] of 7.53 µM and a TGI [30] greater than 100 µM. It also gave a GI50 [31] of 17.7 µM, a TGI [31] greater than 100 µM and a GI50 [32] of 3.98 µM. It also gave a TGI [32] greater than 100 µM, a GI50 [33] of 2.74 µM and a TGI [33] of 10.4 µM. The GI50 [34] was 3.91 µM, the TGI [34] was 38.2 µM and the GI50 [35] was 3.43 µM. The TGI [35] was 30.8 µM, the GI50 [36] was greater than 100 µM and the TGI [36] was greater than 100 µM. It also gave a GI50 [37] of 6.45 µM, a TGI [37] of 86.2 µM and a GI50 [38] of 14.5 µM. It also gave a TGI [38] greater than 100 µM, a GI50 [39] of 6.77 µM and a TGI [39] greater than 100 µM. For the same molecule, the GI50 [40] was 9.1 µM, the TGI [40] was greater than 100 µM and the GI50 [41] was 2.09 µM. It also gave a TGI [41] of 17.6 µM, a GI50 [42] of 14.3 µM and a TGI [42] greater than 100 µM. For the same molecule, the GI50 [43] was 3.92 µM, the TGI [43] was greater than 100 µM and the GI50 [44] was 3.42 µM. For the same molecule, the TGI [44] was 16.9 µM, the GI50 [45] was 2.5 µM and the TGI [45] was 7.27 µM. It also gave a GI50 [46] of 6.38 µM, a TGI [46] greater than 100 µM and a GI50 [47] of 2.87 µM. For the same molecule, the TGI [47] was greater than 100 µM, the GI50 [48] was 7.74 µM and the TGI [48] was 92 µM. For the same molecule, the GI50 [49] was greater than 100 µM, the TGI [49] was greater than 100 µM and the GI50 [50] was 11.4 µM. For the same molecule, the TGI [50] was greater than 100 µM, the GI50 [51] was 1.66 µM and the TGI [51] was 7.61 µM. For the same molecule, the GI50 [52] was 2.47 µM, the TGI [52] was greater than 100 µM and the GI50 [53] was 3.68 µM. The TGI [53] was greater than 100 µM, the GI50 [54] was 4.56 µM and the TGI [54] was greater than 100 µM. It also gave a GI50 [55] greater than 100 µM, a TGI [55] greater than 100 µM and a GI50 [56] of 4.46 µM. The TGI [56] was greater than 100 µM, the GI50 [57] was greater than 100 µM and the TGI [57] was greater than 100 µM. For the same molecule, the GI50 [58] was 3.69 µM, the TGI [58] was greater than 100 µM and the GI50 [59] was 9.9 µM. The TGI [59] was greater than 100 µM.
